Values of other authors in patent US6656923B1, “Uncomplexed cyclodextrin compositions for odor and wrinkle control” (The Procter & Gamble Company, priority 1997, dated 2003).

ClC=CC[N+]12CN3CN(CN(C3)C1)C2.[Cl-] [Dowicil 200, 1-(3-Chlorallyl)-3,5,7-triaza-1-azoniaadamantane chloride]
solubility in water: freely soluble in water
